From paper PMC11847706, “Deep learning enhances the prediction of HLA class I-presented CD8^+ T cell epitopes in foreign pathogens” (Nature Machine Intelligence, 2025)

Tests used:
CD8^+ T cells = test: Ex vivo proliferation assay (CellTrace Far Red); type: cell-based, human; conditions: HLA-A*02:01-restricted, Fig. 6d
Protocol: PBMCs were suspended at 1 × 10^6 cells per ml in 1 μM CellTrace Far Red dye (ThermoFisher) in PBS and incubated at 37 °C for 20 min. Cells were protected from light and mixed every 5 min during the incubation. RPMI supplemented with 10% fetal bovine serum was added to quench the reaction for 5 min, followed by centrifugation at 1,500 rpm for 3 min before resuspension in culture media. Cells were plated into 96-well U-bottom plates (Corning) (200,000 cells per well in 200 μl of culture media) and incubated with individual EBV peptides at a concentration of 0.5 μg ml^−1 for 5 days. Cells were washed with PBS supplemented with 2% fetal bovine serum and stained with anti-human CD3-BUV395 (Clone UCHT1, BD Biosciences, 1:100 dilution), anti-human CD4-PE-Cy7 (Clone OKT4, BioLegend, 1:100 dilution), anti-human CD8-BV605 (Clone SK1, BioLegend, 1:100 dilution) and live/dead violet viability dye (Life Technologies). Cells were washed and fixed in 2% paraformaldehyde and flow cytometric analysis was performed on a BD LSR Fortessa (BD Biosciences).

PBMCs = test: Ex vivo IFNγ ELISpot assay; type: cell-based, human; conditions: for Effector CD8^+ T cell responses across multiple individuals: ex vivo IFNγ ELISpot, HLA-A*02:01-restricted, Fig. 6c
Protocol: IFNγ ELISpot assays were performed according to the manufacturer’s instructions (Mabtech). PBMCs were incubated with individual peptides from EBV at a final concentration of 0.5 μg ml^−1 for 16–18 h. Positive controls were anti-human CD3 (Clone OKT3, BioLegend, 0.5 μg ml^−1) and anti-human CD28 (Clone CD28.2, BioLegend, 0.5 μg ml^−1) antibodies. The number of spot-forming units in the highest-value DMSO control well was subtracted from each experimental well. Responses were considered positive if both replicates had greater than or equal to five spot-forming units per well above background.

Sequence	Memory CD8^+ T cell responses across multiple individuals (CD8^+ T cells)	Effector CD8^+ T cell responses across multiple individuals (PBMCs)	Immunogenicity (T cell reactivity) (PBMCs; HLA-A*02:01, 15mer, LMP2A: 71-85)
SIIPRTPDV [A*02-SV9]	capable of eliciting	capable of eliciting	–
HSDYQPLGTQDQSLY	–	–	immunogenic
YVLDHLIVV [A*02-YV9]	capable of eliciting	capable of eliciting	–
